Biological target: T1, VEGFR2 (Homo sapiens, UniProt P35968)
T1 construct: gene KDR; recombinant VEGFR2 (amino acids 789 to end)
Test: cell-free ADP-Glo kinase assay at […] ATP, with ATP competition at […] ATP
Type: biochemical

T1 sequence (P35968 789-1356): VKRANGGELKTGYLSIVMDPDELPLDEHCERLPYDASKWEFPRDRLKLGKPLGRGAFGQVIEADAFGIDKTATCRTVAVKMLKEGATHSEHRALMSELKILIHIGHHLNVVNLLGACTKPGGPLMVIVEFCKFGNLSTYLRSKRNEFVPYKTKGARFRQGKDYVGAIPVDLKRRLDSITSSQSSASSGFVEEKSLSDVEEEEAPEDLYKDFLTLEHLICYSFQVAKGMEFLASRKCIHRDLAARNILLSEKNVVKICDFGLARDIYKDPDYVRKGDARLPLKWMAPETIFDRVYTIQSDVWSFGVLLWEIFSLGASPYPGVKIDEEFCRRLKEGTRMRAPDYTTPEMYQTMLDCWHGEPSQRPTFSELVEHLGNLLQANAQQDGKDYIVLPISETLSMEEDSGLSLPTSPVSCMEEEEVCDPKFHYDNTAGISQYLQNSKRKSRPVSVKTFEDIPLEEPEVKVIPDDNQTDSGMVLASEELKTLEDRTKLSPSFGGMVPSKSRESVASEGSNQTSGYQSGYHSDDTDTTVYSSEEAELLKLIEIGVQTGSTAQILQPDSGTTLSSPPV

Oc1c(I)cc(Cl)c2cccnc12 [clioquinol]
IC50: 34.6 µM
